Measurements: PubChem BioAssay (NCI)
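Protocol summary: plate cells (96-well), add compound at 5 concentrations, incubate 48 h, interpolate endpoints linearly. GI50 is the concentration that inhibits growth by half. The concentration for full growth arrest is given as TGI.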

What was measured:
Experiment in all cases: inhibition of tumour cell growth, NCI panel, 48 h
NCI-H460 lung = system: NCI-H460 lung
OVCAR-3 ovarian = system: OVCAR-3 ovarian
HCT-15 colon = system: HCT-15 colon
NCI-H522 lung = system: NCI-H522 lung
EKVX NSCLC = system: EKVX NSCLC
UO-31 renal = system: UO-31 renal
MALME-3M melanoma = system: MALME-3M melanoma
SNB-75 CNS = system: SNB-75 CNS
HT29 colon = system: HT29 colon
MOLT-4 leukemia = system: MOLT-4 leukemia
HOP-92 NSCLC = system: HOP-92 NSCLC
SR leukemia = system: SR leukemia
HL-60(TB) leukemia = system: HL-60(TB) leukemia
TK-10 renal = system: TK-10 renal
ACHN renal = system: ACHN renal
SF-268 CNS = system: SF-268 CNS
SK-MEL-28 melanoma = system: SK-MEL-28 melanoma
M14 melanoma = system: M14 melanoma
UACC-62 melanoma = system: UACC-62 melanoma
LOX IMVI melanoma = system: LOX IMVI melanoma
RXF 393 renal = system: RXF 393 renal
OVCAR-5 ovarian = system: OVCAR-5 ovarian
SF-539 CNS = system: SF-539 CNS
RPMI-8226 leukemia = system: RPMI-8226 leukemia
UACC-257 melanoma = system: UACC-257 melanoma
KM12 colon = system: KM12 colon
786-0 renal = system: 786-0 renal
HCT-116 colon = system: HCT-116 colon
SF-295 CNS = system: SF-295 CNS
OVCAR-4 ovarian = system: OVCAR-4 ovarian
NCI-H226 lung = system: NCI-H226 lung
CAKI-1 renal = system: CAKI-1 renal
KM20L2 colon = system: KM20L2 colon
A498 renal = system: A498 renal
SW-620 colon = system: SW-620 colon
A549 NSCLC = system: A549 NSCLC
OVCAR-8 ovarian = system: OVCAR-8 ovarian
HCC-2998 colon = system: HCC-2998 colon
COLO 205 colon = system: COLO 205 colon
SK-MEL-5 melanoma = system: SK-MEL-5 melanoma
SN12C renal = system: SN12C renal
NCI-H23 lung = system: NCI-H23 lung
SK-OV-3 ovarian = system: SK-OV-3 ovarian
HOP-62 NSCLC = system: HOP-62 NSCLC
SK-MEL-2 melanoma = system: SK-MEL-2 melanoma
U251 CNS = system: U251 CNS
IGROV1 ovarian = system: IGROV1 ovarian

## CC[O-].CC[O-].O=C([CH-]C(=O)c1ccccc1)c1ccccc1.O=C([CH-]C(=O)c1ccccc1)c1ccccc1.[Ti+4]
NCI-H460 lung
  GI50: 44.3 µM
  TGI: > 100 µM
OVCAR-3 ovarian
  GI50: > 100 µM
  TGI: > 100 µM
HCT-15 colon
  GI50: > 100 µM
  TGI: > 100 µM
NCI-H522 lung
  GI50: > 100 µM
  TGI: > 100 µM
EKVX NSCLC
  GI50: > 100 µM
  TGI: > 100 µM
UO-31 renal
  GI50: > 100 µM
  TGI: > 100 µM
MALME-3M melanoma
  GI50: > 100 µM
  TGI: > 100 µM
SNB-75 CNS
  GI50: 61.6 µM
  TGI: > 100 µM
HT29 colon
  GI50: > 100 µM
  TGI: > 100 µM
MOLT-4 leukemia
  GI50: 46.5 µM
  TGI: > 100 µM
HOP-92 NSCLC
  GI50: 44.3 µM
  TGI: > 100 µM
SR leukemia
  GI50: 62.4 µM
  TGI: > 100 µM
HL-60(TB) leukemia
  GI50: 25.3 µM
  TGI: > 100 µM
TK-10 renal
  GI50: > 100 µM
  TGI: > 100 µM
ACHN renal
  GI50: > 100 µM
  TGI: > 100 µM
SF-268 CNS
  GI50: > 100 µM
  TGI: > 100 µM
SK-MEL-28 melanoma
  GI50: > 100 µM
  TGI: > 100 µM
M14 melanoma
  GI50: > 100 µM
  TGI: > 100 µM
UACC-62 melanoma
  GI50: > 100 µM
  TGI: > 100 µM
LOX IMVI melanoma
  GI50: > 100 µM
  TGI: > 100 µM
RXF 393 renal
  GI50: 39.1 µM
  TGI: > 100 µM
OVCAR-5 ovarian
  GI50: > 100 µM
  TGI: > 100 µM
SF-539 CNS
  GI50: 19.8 µM
  TGI: > 100 µM
RPMI-8226 leukemia
  GI50: 45.4 µM
  TGI: > 100 µM
UACC-257 melanoma
  GI50: > 100 µM
  TGI: > 100 µM
KM12 colon
  GI50: > 100 µM
  TGI: > 100 µM
786-0 renal
  GI50: > 100 µM
  TGI: > 100 µM
HCT-116 colon
  GI50: > 100 µM
  TGI: > 100 µM
SF-295 CNS
  GI50: > 100 µM
  TGI: > 100 µM
OVCAR-4 ovarian
  GI50: > 100 µM
  TGI: > 100 µM
NCI-H226 lung
  GI50: 25.2 µM
  TGI: > 100 µM
CAKI-1 renal
  GI50: > 100 µM
  TGI: > 100 µM
KM20L2 colon
  GI50: > 100 µM
  TGI: > 100 µM
A498 renal
  GI50: > 100 µM
  TGI: > 100 µM
SW-620 colon
  GI50: > 100 µM
  TGI: > 100 µM
A549 NSCLC
  GI50: > 100 µM
  TGI: > 100 µM
OVCAR-8 ovarian
  GI50: 79.4 µM
  TGI: > 100 µM
HCC-2998 colon
  GI50: > 100 µM
  TGI: > 100 µM
COLO 205 colon
  GI50: > 100 µM
  TGI: > 100 µM
SK-MEL-5 melanoma
  GI50: > 100 µM
  TGI: > 100 µM
SN12C renal
  GI50: > 100 µM
  TGI: > 100 µM
NCI-H23 lung
  GI50: > 100 µM
  TGI: > 100 µM
SK-OV-3 ovarian
  GI50: > 100 µM
  TGI: > 100 µM
HOP-62 NSCLC
  GI50: > 100 µM
  TGI: > 100 µM
SK-MEL-2 melanoma
  GI50: > 100 µM
  TGI: > 100 µM
U251 CNS
  GI50: 57.2 µM
  TGI: > 100 µM
IGROV1 ovarian
  GI50: > 100 µM
  TGI: > 100 µM
